In ChEMBL document CHEMBL1150783, “In vitro activities of CG400549, a novel FabI inhibitor, against recently isolated clinical staphylococcal strains in Korea” (2007):
≈ marks a conversion by molar mass, not a printed value. Calls of active or inactive are those of the source. The rule behind the calls is not given here.

Key:
Staphylococcus aureus [1] = test: (§1) Antibacterial activity against methicillin-resistant Staphylococcus aureus isolate assessed as percent resistant isolates by CLSI dilution method; assay type: functional
Staphylococcus aureus [2] = test: Antibacterial activity against methicillin-susceptible Staphylococcus aureus isolate assessed as […] isolates by CLSI dilution method; assay type: functional
Staphylococcus aureus [3] = test: as §1; assay type: functional; remark: listed apart in the source
Staphylococcus sp. [4] = test: (§2) Antibacterial activity against methicillin-susceptible coagulase-negative Staphylococcus sp. assessed as percent susceptible isolates by CLSI dilution method; assay type: functional
Staphylococcus sp. [5] = test: Antibacterial activity against methicillin-resistant coagulase-negative Staphylococcus sp. assessed as percent resistant isolates by CLSI dilution method; assay type: functional
Staphylococcus sp. [6] = test: as §2; assay type: functional; remark: listed apart in the source
Staphylococcus sp. [7] = test: Antibacterial activity against methicillin-susceptible coagulase-negative Staphylococcus sp. assessed as percent resistant isolates by CLSI dilution method; assay type: functional
Staphylococcus aureus [8] = test: Antibacterial activity against methicillin-resistant Staphylococcus aureus isolate assessed as percent susceptible isolates by CLSI dilution method; assay type: functional
Staphylococcus aureus [9] = test: Antibacterial activity against methicillin-resistant Staphylococcus aureus by CLSI dilution method; assay type: functional
Staphylococcus aureus [10] = test: Antibacterial activity against methicillin-susceptible Staphylococcus aureus isolate by CLSI dilution method; assay type: functional
Staphylococcus sp. [11] = test: Antibacterial activity against methicillin-resistant coagulase-negative Staphylococcus sp. by CLSI dilution method; assay type: functional
Staphylococcus sp. [12] = test: Antibacterial activity against methicillin-susceptible coagulase-negative Staphylococcus sp. by CLSI dilution method; assay type: functional
Staphylococcus simulans = test: Antibacterial activity against methicillin-susceptible coagulase-negative Staphylococcus simulans by CLSI dilution method; assay type: functional
[13] = tested on: Staphylococcus haemolyticus; test: Antibacterial activity against methicillin-susceptible coagulase-negative Staphylococcus haemolyticus by CLSI dilution method; assay type: functional
Staphylococcus hominis [14] = test: Antibacterial activity against methicillin-susceptible coagulase-negative Staphylococcus hominis by CLSI dilution method; assay type: functional
[15] = tested on: Staphylococcus epidermidis; test: Antibacterial activity against methicillin-susceptible coagulase-negative Staphylococcus epidermidis by CLSI dilution method; assay type: functional
Streptococcus = test: Antibacterial activity against Streptococcus by CLSI dilution method; assay type: functional, organism-based
Enterococcus = test: Antibacterial activity against Enterococcus by CLSI dilution method; assay type: functional, organism-based
Moraxella catarrhalis = test: Antibacterial activity against Moraxella catarrhalis by CLSI dilution method; assay type: functional, organism-based
Listeria monocytogenes = test: Antibacterial activity against Listeria monocytogenes by CLSI dilution method; assay type: functional, organism-based
Staphylococcus hominis [16] = test: Antibacterial activity against methicillin-resistant coagulase-negative Staphylococcus hominis by CLSI dilution method; assay type: functional
Nocardia sp. = test: Antibacterial activity against Nocardia sp. by CLSI dilution method; assay type: functional, organism-based
Corynebacterium = test: Antibacterial activity against […] by CLSI dilution method; assay type: functional, organism-based
Escherichia coli = test: Antibacterial activity against sEscherichia coli by CLSI dilution method; assay type: functional, organism-based
Klebsiella pneumoniae = test: Antibacterial activity against Klebsiella pneumoniae by CLSI dilution method; assay type: functional, organism-based
Enterobacter cloacae = test: Antibacterial activity against sEnterobacter cloacae by CLSI dilution method; assay type: functional, organism-based
Citrobacter freundii = test: Antibacterial activity against Citrobacter freundii by CLSI dilution method; assay type: functional, organism-based
Serratia marcescens = test: Antibacterial activity against Serratia marcescens by CLSI dilution method; assay type: functional, organism-based
Morganella morganii = test: Antibacterial activity against Morganella morganii by CLSI dilution method; assay type: functional, organism-based
Acinetobacter baumannii = test: Antibacterial activity against sAcinetobacter baumannii by CLSI dilution method; assay type: functional, organism-based
Pseudomonas aeruginosa = test: Antibacterial activity against sPseudomonas aeruginosa by CLSI dilution method; assay type: functional, organism-based
Aeromonas sp. = test: Antibacterial activity against Aeromonas sp. by CLSI dilution method; assay type: functional, organism-based
Vibrio sp. = test: Antibacterial activity against Vibrio sp. by CLSI dilution method; assay type: functional, organism-based
Haemophilus influenzae = test: Antibacterial activity against sHaemophilus influenzae by CLSI dilution method; assay type: functional, organism-based
Campylobacter fetus = test: Antibacterial activity against Campylobacter fetus by CLSI dilution method; assay type: functional, organism-based
Helicobacter pylori = test: Antibacterial activity against Helicobacter pylori by CLSI dilution method; assay type: functional, organism-based
Neisseria gonorrhoeae = test: Antibacterial activity against Neisseria gonorrhoeae by CLSI dilution method; assay type: functional, organism-based
[17] = tested on: Staphylococcus haemolyticus; test: Antibacterial activity against methicillin-resistant coagulase-negative Staphylococcus haemolyticus by CLSI dilution method; assay type: functional
[18] = tested on: Staphylococcus epidermidis; test: Antibacterial activity against methicillin-resistant coagulase-negative Staphylococcus epidermidis by CLSI dilution method; assay type: functional
[19] = tested on: Staphylococcus saprophyticus; test: Antibacterial activity against methicillin-resistant coagulase-negative Staphylococcus saprophyticus by CLSI dilution method; assay type: functional
Mammaliicoccus sciuri = test: Antibacterial activity against methicillin-resistant coagulase-negative Staphylococcus sciuri by CLSI dilution method; assay type: functional

CN[C@H](CC(C)C)C(=O)N[C@H]1C(=O)N[C@@H](CC(N)=O)C(=O)N[C@H]2C(=O)N[C@H]3C(=O)N[C@H](C(=O)N[C@H](C(=O)O)c4cc(O)cc(O)c4-c4cc3ccc4O)[C@H](O)c3ccc(c(Cl)c3)Oc3cc2cc(c3O[C@@H]2O[C@H](CO)[C@@H](O)[C@H](O)[C@H]2O[C@H]2C[C@](C)(N)[C@H](O)[C@H](C)O2)Oc2ccc(cc2Cl)[C@H]1O [VANCOMYCIN]
Activity (Staphylococcus aureus [1]): 0%
Activity (Staphylococcus aureus [2]): 100%
Activity (Staphylococcus aureus [3]): 0%
Activity (Staphylococcus sp. [4]): 99%
Activity (Staphylococcus sp. [5]): 0%
Activity (Staphylococcus sp. [6]): 100%
Activity (Staphylococcus sp. [7]): 0%
Activity (Staphylococcus aureus [8]): 100%
MIC50 (Staphylococcus aureus [9]): 1 µg/mL (≈ 0.69 µM)
MIC90 (Staphylococcus aureus [9]): 1 µg/mL (≈ 0.69 µM)
MIC50 (Staphylococcus aureus [10]): 1 µg/mL (≈ 0.69 µM)
MIC90 (Staphylococcus aureus [10]): 1 µg/mL (≈ 0.69 µM)
MIC50 (Staphylococcus sp. [11]): 1 µg/mL (≈ 0.69 µM)
MIC90 (Staphylococcus sp. [11]): 2 µg/mL (≈ 1.38 µM)
MIC50 (Staphylococcus sp. [12]): 1 µg/mL (≈ 0.69 µM)
MIC90 (Staphylococcus sp. [12]): 2 µg/mL (≈ 1.38 µM)

Cc1c(N)cccc1Cn1ccc(OCCc2cccs2)cc1=O [CG-400549]
MIC (Staphylococcus simulans): 4 µg/mL (≈ 11.7 µM)
MIC [13]: 2 µg/mL (≈ 5.87 µM)
MIC (Staphylococcus hominis [14]): 4 µg/mL (≈ 11.7 µM)
MIC [15]: 8 µg/mL (≈ 23.5 µM)
Activity (Streptococcus): Active
Activity (Enterococcus): Active
Activity (Moraxella catarrhalis): Active
Activity (Listeria monocytogenes): Active
MIC (Staphylococcus hominis [16]): 4 µg/mL (≈ 11.7 µM)
Activity (Nocardia sp.): Active
Activity (Corynebacterium): Active
Activity (Escherichia coli): Active
Activity (Klebsiella pneumoniae): Active
Activity (Enterobacter cloacae): Active
Activity (Citrobacter freundii): Active
Activity (Serratia marcescens): Active
Activity (Morganella morganii): Active
Activity (Acinetobacter baumannii): Active
Activity (Pseudomonas aeruginosa): Active
Activity (Aeromonas sp.): Active
Activity (Vibrio sp.): Active
Activity (Haemophilus influenzae): Active
Activity (Campylobacter fetus): Active
Activity (Helicobacter pylori): Active
Activity (Neisseria gonorrhoeae): Active
MIC50 (Staphylococcus aureus [9]): 0.5 µg/mL (≈ 1.47 µM)
MIC90 (Staphylococcus aureus [9]): 0.5 µg/mL (≈ 1.47 µM)
MIC50 (Staphylococcus aureus [10]): 0.5 µg/mL (≈ 1.47 µM)
MIC90 (Staphylococcus aureus [10]): 0.5 µg/mL (≈ 1.47 µM)
MIC50 (Staphylococcus sp. [11]): 0.5 µg/mL (≈ 1.47 µM)
MIC90 (Staphylococcus sp. [11]): 4 µg/mL (≈ 11.7 µM)
MIC50 (Staphylococcus sp. [12]): 0.5 µg/mL (≈ 1.47 µM)
MIC90 (Staphylococcus sp. [12]): 8 µg/mL (≈ 23.5 µM)
MIC [17]: 2 µg/mL (≈ 5.87 µM)
MIC [18]: 4 µg/mL (≈ 11.7 µM)
MIC [19]: 8 µg/mL (≈ 23.5 µM)
MIC (Mammaliicoccus sciuri): 4 µg/mL (≈ 11.7 µM)

C[C@H]1COc2c(N3CCN(C)CC3)c(F)cc3c(=O)c(C(=O)O)cn1c23.C[C@H]1COc2c(N3CCN(C)CC3)c(F)cc3c(=O)c(C(=O)O)cn1c23.O [LEVOFLOXACIN]
Activity (Staphylococcus aureus [1]): 93%
Activity (Staphylococcus aureus [2]): 100%
Activity (Staphylococcus aureus [3]): 0%
Activity (Staphylococcus sp. [4]): 35%
Activity (Staphylococcus sp. [5]): 60%
Activity (Staphylococcus sp. [6]): 100%
Activity (Staphylococcus sp. [7]): 0%
Activity (Staphylococcus aureus [8]): 7%
MIC50 (Staphylococcus aureus [9]): 16 µg/mL
MIC90 (Staphylococcus aureus [9]): > 128 µg/mL
MIC50 (Staphylococcus aureus [10]): 0.25 µg/mL
MIC90 (Staphylococcus aureus [10]): 0.5 µg/mL
MIC50 (Staphylococcus sp. [11]): 4 µg/mL
MIC90 (Staphylococcus sp. [11]): 32 µg/mL
MIC50 (Staphylococcus sp. [12]): 0.25 µg/mL
MIC90 (Staphylococcus sp. [12]): 0.25 µg/mL

CN(C)[C@@H]1C(O)=C(C(N)=O)C(=O)[C@@]2(O)C(O)=C3C(=O)c4c(O)cccc4[C@@](C)(O)[C@H]3C[C@@H]12 [TETRACYCLINE]
Activity (Staphylococcus aureus [1]): 75%
Activity (Staphylococcus aureus [2]): 88%
Activity (Staphylococcus aureus [3]): 12%
Activity (Staphylococcus sp. [4]): 67%
Activity (Staphylococcus sp. [5]): 31%
Activity (Staphylococcus sp. [6]): 78%
Activity (Staphylococcus sp. [7]): 22%
Activity (Staphylococcus aureus [8]): 25%
MIC50 (Staphylococcus aureus [9]): 64 µg/mL (≈ 144 µM)
MIC90 (Staphylococcus aureus [9]): 128 µg/mL (≈ 288 µM)
MIC50 (Staphylococcus aureus [10]): 1 µg/mL (≈ 2.25 µM)
MIC90 (Staphylococcus aureus [10]): 32 µg/mL (≈ 72 µM)
MIC50 (Staphylococcus sp. [11]): 2 µg/mL (≈ 4.5 µM)
MIC90 (Staphylococcus sp. [11]): 128 µg/mL (≈ 288 µM)
MIC50 (Staphylococcus sp. [12]): 0.5 µg/mL (≈ 1.13 µM)
MIC90 (Staphylococcus sp. [12]): 64 µg/mL (≈ 144 µM)
